Experimental data: patent publication US20210198277A1, “AMINE-SUBSTITUTED ARYL OR HETEROARYL COMPOUNDS” (Epizyme, Inc., priority 2016, published 2021)

These compounds were tested against T1, EHMT1 (Homo sapiens, UniProt Q9H9B1) (assay: EHMT1 enzyme assay on peptide substrate (EHMT1 PEP)). Conditions: Table III; read-out: EHMT1 PEP (IC50 μM).
T1 sequence (Q9H9B1 1-1298): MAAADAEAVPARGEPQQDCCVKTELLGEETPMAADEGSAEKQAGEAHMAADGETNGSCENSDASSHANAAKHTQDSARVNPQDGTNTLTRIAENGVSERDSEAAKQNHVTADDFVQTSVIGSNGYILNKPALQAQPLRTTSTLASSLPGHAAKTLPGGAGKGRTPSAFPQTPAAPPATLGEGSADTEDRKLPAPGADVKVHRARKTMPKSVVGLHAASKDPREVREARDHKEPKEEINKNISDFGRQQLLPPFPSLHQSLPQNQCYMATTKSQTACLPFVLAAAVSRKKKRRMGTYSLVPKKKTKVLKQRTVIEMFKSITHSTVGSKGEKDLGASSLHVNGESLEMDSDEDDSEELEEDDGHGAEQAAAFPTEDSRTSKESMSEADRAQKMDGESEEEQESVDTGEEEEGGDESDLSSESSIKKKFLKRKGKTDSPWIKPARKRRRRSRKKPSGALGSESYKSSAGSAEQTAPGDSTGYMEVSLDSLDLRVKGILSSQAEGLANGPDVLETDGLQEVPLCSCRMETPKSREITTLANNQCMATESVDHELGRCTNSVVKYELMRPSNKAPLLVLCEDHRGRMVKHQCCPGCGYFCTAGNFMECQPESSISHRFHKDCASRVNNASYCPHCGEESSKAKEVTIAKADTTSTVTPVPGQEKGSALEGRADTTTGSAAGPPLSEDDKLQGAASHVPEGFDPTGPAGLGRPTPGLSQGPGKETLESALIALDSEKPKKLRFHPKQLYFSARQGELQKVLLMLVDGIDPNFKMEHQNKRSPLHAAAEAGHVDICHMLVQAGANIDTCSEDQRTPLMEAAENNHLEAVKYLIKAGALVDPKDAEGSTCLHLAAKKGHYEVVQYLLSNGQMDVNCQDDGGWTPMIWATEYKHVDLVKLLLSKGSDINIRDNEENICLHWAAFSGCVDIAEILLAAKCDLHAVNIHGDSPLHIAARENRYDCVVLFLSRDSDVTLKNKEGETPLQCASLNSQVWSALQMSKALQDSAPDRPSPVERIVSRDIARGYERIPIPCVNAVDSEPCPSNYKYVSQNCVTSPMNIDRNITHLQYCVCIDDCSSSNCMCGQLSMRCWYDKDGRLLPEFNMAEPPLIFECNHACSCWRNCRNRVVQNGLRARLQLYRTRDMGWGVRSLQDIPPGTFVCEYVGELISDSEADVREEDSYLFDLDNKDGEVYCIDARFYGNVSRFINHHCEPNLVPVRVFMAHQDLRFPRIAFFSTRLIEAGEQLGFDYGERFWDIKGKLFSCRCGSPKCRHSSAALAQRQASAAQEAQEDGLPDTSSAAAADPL
Type: biochemical

IC50 [µM]	SMILES
0.1 to 1	CNc1ccnc(Nc2ccc(OC)c(OCCCN3CCC3C)c2)n1 (stereo not shown) [Compound 429, N^2-(4-methoxy-3-(3-(2-methylazetidin-1-yl)propoxy)phenyl)-N^4-methylpyrimidine-2,4-diamine]
> 10	CNc1cc(C)nc(Nc2ccc(OC)c(OCCCOC)c2)n1 [Compound 312, N^2-(4-methoxy-3-(3-methoxypropoxy)phenyl)-N^4,6-dimethylpyrimidine-2,4-diamine]
< 0.1	CNc1nc(C2CCN(C)CC2)c2cc(OC)c(OCCCN3CCCC3)cc2n1 [Compound 270]
0.1 to 1	CNc1cc(C)nc(Nc2cc(OCCCN3CCCC3)c(OC)cn2)n1 [Compound 303, N^2-(5-methoxy-4-(3-(pyrrolidin-1-yl)propoxy)pyridin-2-yl)-N^4,6-dimethylpyrimidine-2,4-diamine]
0.1 to 1	CNc1cc(C)nc(Nc2ccc(OC)c(OCC3CCN(C4COC4)C3)c2)n1 (stereo not shown) [Compound 449, N^2-(4-methoxy-3-((1-(oxetan-3-yl)pyrrolidin-3-yl)methoxy)phenyl)-N^4,6-dimethylpyrimidine-2,4-diamine]
> 10	CNc1cc(N2CCCC2)nc(Nc2ccc(OC)c(OCCCN3CCCC3)c2)n1 [Compound 450, N^2-(4-methoxy-3-(3-(pyrrolidin-1-yl)propoxy)phenyl)-N^4-methyl-6-(pyrrolidin-1-yl)pyrimidine-2,4-diamine]
1 to 10	CNc1cc(C)nc(Nc2ccc(OC)c(OCC3CCCO3)c2)n1 (stereo not shown) [Compound 452, N^2-(4-methoxy-3-((tetrahydrofuran-2-yl)methoxy)phenyl)-N^4,6-dimethylpyrimidine-2,4-diamine]
0.1 to 1	CNc1ccnc(Nc2ccc(OC)c(OC[C@H]3CN(C)C[C@@H]3C)c2)n1 (single isomer, unassigned) [Compound 439]
< 0.1	CNc1cc(C2CC2)nc(Nc2ccc(OC)c(OCCCN3CCCC3)c2)n1 [Compound 320, 6-cyclopropyl-N^2-(4-methoxy-3-(3-(pyrrolidin-1-yl)propoxy)phenyl)-N^4-methylpyrimidine-2,4-diamine]
< 0.1	COc1ccc(Nc2nccc(NCC3CC(C)(C)NC(C)(C)C3)n2)cc1OCCCN1CCCC1 [Compound 278]
> 10	CNc1ccnc(Nc2ccc(OC)c(OCCCN3CCC4(COC4)C3)c2)n1 [Compound 284]
1 to 10	CCN(CC)CCCOc1cc(Nc2nccc(NC)n2)ccc1OC [Compound 280, N^2-(3-(3-(diethylamino)propoxy)-4-methoxyphenyl)-N^4-methylpyrimidine-2,4-diamine]
> 10	COc1ccc(Nc2nc(C)cc(O)n2)cc1OCCCN1CCCC1 [Compound 447, 2-((4-methoxy-3-(3-(pyrrolidin-1-yl)propoxy)phenyl)amino)-6-methylpyrimidin-4-ol]
< 0.1	CNc1ccnc(Nc2ccc(OC)c(OCCCN3CCC(OC)C3)c2)n1 (stereo not shown) [Compound 283, N^2-(4-methoxy-3-(3-(3-methoxypyrrolidin-1-yl)propoxy)phenyl)-N^4-methylpyrimidine-2,4-diamine]
0.1 to 1	CNc1ccnc(Nc2ccc(C3CC3)c(OCCCN3CCCC3)c2)n1 [Compound 314, N^2-(4-cyclopropyl-3-(3-(pyrrolidin-1-yl)propoxy)phenyl)-N^4-methylpyrimidine-2,4-diamine]
> 10	CNc1ccnc(Nc2cccc(N3CCC(N)C3)c2)n1 (stereo not shown) [Compound 297]
0.1 to 1	CNc1ccnc(Nc2ccc(OC)c(OCCCN3CC(C)C3)c2)n1 [Compound 423, N^2-(4-methoxy-3-(3-(3-methylazetidin-1-yl)propoxy)phenyl)-N^4-methylpyrimidine-2,4-diamine]
> 10	CNc1ccnc(Nc2ccc(OC)c(OCCCN3CCC(C#N)C3)c2)n1 (stereo not shown) [Compound 287, 1-(3-(2-methoxy-5-((4-(methylamino)pyrimidin-2-yl)amino)phenoxy)propyl)pyrrolidine-3-carbonitrile]
< 0.1	CNc1cc(C)nc(Nc2cc(OCCCN3CCCC3)c(OC)cn2)c1 [Compound 307, N^2-(5-methoxy-4-(3-(pyrrolidin-1-yl)propoxy)pyridin-2-yl)-N^4,6-dimethylpyridine-2,4-diamine]

IC50 [µM]	SMILES
1 to 10	CNc1cc(Nc2ccc(OC)c(OCCCN3CCCC3)c2)ncc1F [Compound 272, 5-fluoro-N^2-(4-methoxy-3-(3-(pyrrolidin-1-yl)propoxy)phenyl)-N^4-methylpyridine-2,4-diamine]
> 10	CNc1ccnc(Nc2ccc(OC)c(OCCOC3CCCC3)c2)n1 [Compound 440, N^2-(3-(2-(cyclopentyloxy)ethoxy)-4-methoxyphenyl)-N^4-methylpyrimidine-2,4-diamine]
> 10	CNc1ccnc(N[C@@H]2CCC[C@H](OCCCN3CCCC3)C2)n1 [Compound 427]
> 10	CNc1cc(C)nc(Nc2cc(F)c(OC)c(OCCCN3CCCC3)c2)n1 [Compound 301, N2-(3-fluoro-4-methoxy-5-(3-(pyrrolidin-1-yl)propoxy)phenyl)-N4,6-dimethylpyrimidine-2,4-diamine]
> 10	CCOc1ccc(Nc2nccc(NC)n2)cc1OCCCN1CCCC1 [Compound 430, N^2-(4-ethoxy-3-(3-(pyrrolidin-1-yl)propoxy)phenyl)-N^4-methylpyrimidine-2,4-diamine]
0.1 to 1	CNc1ccnc(Nc2ccc(OC)c(OCCCN3CCC(C)C3)c2)n1 (stereo not shown) [Compound 293, N^2-(4-methoxy-3-(3-(3-methylpyrrolidin-1-yl)propoxy)phenyl)-N^4-methylpyrimidine-2,4-diamine]
> 10	CNc1cc(C)nc(Nc2ccc(OC)c(OCC3CCN(CC4CC4)CC3)c2)n1 [Compound 436, N^2-(3-((1-(cyclopropylmethyl)piperidin-4-yl)methoxy)-4-methoxyphenyl)-N^4,6-dimethylpyrimidine-2,4-diamine]
0.1 to 1	CNc1ccnc(Nc2ccc(OC)c(OCCCN3CC(OC)C3)c2)n1 [Compound 425, N^2-(4-methoxy-3-(3-(3-methoxyazetidin-1-yl)propoxy)phenyl)-N^4-methylpyrimidine-2,4-diamine]
< 0.1	CNc1cc(Nc2cc(OCCCN3CCCC3)c(OC)cn2)nc(C)c1F [Compound 309, 5-fluoro-N^2-(5-methoxy-4-(3-(pyrrolidin-1-yl)propoxy)pyridin-2-yl)-N^4,6-dimethylpyridine-2,4-diamine]
1 to 10	CNc1ccnc(Nc2cccc(N3CCC(N)C3=O)c2)n1 (stereo not shown) [Compound 274]
< 0.1	CNc1ccnc(Nc2ccc(OC)c(OC[C@H](O)CN3CCCC3)c2)n1 [Compound 299, (R)-1-(2-methoxy-5-((4-(methylamino)pyrimidin-2-yl)amino)phenoxy)-3-(pyrrolidin-1-yl)propan-2-ol]
0.1 to 1	CNc1cc(COC)nc(Nc2ccc(OC)c(OCCCN3CCCC3)c2)n1 [Compound 441, N^2-(4-methoxy-3-(3-(pyrrolidin-1-yl)propoxy)phenyl)-6-(methoxymethyl)-N^4-methylpyrimidine-2,4-diamine]
> 10	CNc1ccnc(Nc2ccc(OC)c(OCc3cn(C4CC4)nn3)c2)n1 [Compound 434, N^2-(3-((1-cyclopropyl-1H-1,2,3-triazol-4-yl)methoxy)-4-methoxyphenyl)-N^4-methylpyrimidine-2,4-diamine]
0.1 to 1	CNc1cc(C)nc(Nc2ccc(OC)c(OCC3CN(CC4CC4)C3)c2)n1 [Compound 445, N^2-(3-((1-(cyclopropylmethyl)azetidin-3-yl)methoxy)-4-methoxyphenyl)-N^4,6-dimethylpyrimidine-2,4-diamine]
0.1 to 1	CNc1ccnc(Nc2ccc(OC)c(OCCCN3CCC(O)C3)c2)n1 (stereo not shown) [Compound 286, 1-(3-(2-methoxy-5-((4-(methylamino)pyrimidin-2-yl)amino)phenoxy)propyl)pyrrolidin-3-ol]
1 to 10	CNc1cc(CC(F)(F)F)nc(Nc2ccc(OC)c(OCCCN3CCCC3)c2)n1 [Compound 428, N^2-(4-methoxy-3-(3-(pyrrolidin-1-yl)propoxy)phenyl)-N^4-methyl-6-(2,2,2-trifluoroethyl)pyrimidine-2,4-diamine]
< 0.1	CNc1ccnc(Nc2cc(OCCCN3CCCC3)c(OC)cn2)c1 [Compound 305, N^2-(5-methoxy-4-(3-(pyrrolidin-1-yl)propoxy)pyridin-2-yl)-N^4-methylpyridine-2,4-diamine]
< 0.1	CCN1CC(COc2cc(Nc3nc(C)cc(NC)n3)ccc2OC)C1 [Compound 444]
